Tests used:
[1] = system: MDA-MB-231-luc2 tumor metastases; conditions: Nu/Nu mouse, three weeks after intracardiac injection of 1 million MDA-MB-231-luc2 cells; IVIS imaging
Protocol: A Nu/Nu mouse was intracardiacally injected with 1 million of MDA-MB-231-luc2 cells. At three weeks, the mouse was imaged with an IVIS spectrum following intraperitoneal injection of luciferin (150 mg/kg). […] At 24 hours after luciferin injection when the bioluminescence signal returned to a base line level, this mouse was injected intravenously with luminol.
As inflammation is involved in a broad range of disease process, including tumor development, the utility of the NAC compositions and methods was also tested for tumor detection. In a systemic metastases model through intracardiac injection of MDA-MB-231-luc tumor, metastatic tumor development in lungs and knee joints was also evaluated using NAC compositions. Briefly, a Nu/Nu mouse was injected intracardiacally with 1 million MDA-MB-231-luc2 tumor cells. At three weeks, the mouse was imaged with an IVIS spectrum following intraperitoneal injection of luciferin (150 mg/kg). At 24 hours after luciferin injection when the bioluminescence signal returned to a base line level, this mouse was injected intravenously with luminol.

[2] = system: free radical production in the pulmonary tissues; conditions: LPS 1 mg/kg intratracheal; intravenous probe; imaging 5 minutes after injection; vs non-LPS control mice given luminol/Quantum dot 800 mixture
Protocol: Animals were divided into three groups of animals.
An acute inflammatory response in pulmonary tissues was induced by intratracheal delivery of LPS to mice. In particular, LPS was dissolved in sterile PBS to a concentration of 10 mg/ml. LPS (in 50 μl total volume) was delivered to mice intratracheally with a 22-gauge intubator. The final dose of LPS was 1 mg/kg. […] Imaging was performed at 5 minutes after injection.

Row | Structure (SMILES) | detection of tumor metastases (loci) [1] | increase of NAC / lung signal from the pulmonary tissues as compared to control mice [2]
1 | O=C(O)[C@H]1CSC(c2nc3ccc(O)cc3s2)=N1 [luciferin] | detected in the lungs, knee joints and cranial region | –
2 | Nc1cccc2c(=O)[nH][nH]c(=O)c12 [luminol] | Tumor metastasis at the knee joint was detected | two

— patent publication US9446151B2, “In vivo imaging of enzymatic activity” (Caliper Life Sciences, Inc., priority 2011, dated 2016)
